# Source: patent US20250152585A1, “PHARMACEUTICAL COMPOUND” (Duke Street Bio Limited, priority 2022, published 2025)
# Read-outs that look alike come from different tables or passages of the source.
# What was measured:
# [1] = target: T1, N-terminally FLAG-tagged PARP2 (amino acids 1-583) (Homo sapiens, UniProt Q9UGN5); test: PARP2 probe displacement HTRF assay; type: binding; details: binned Kd
# T1 construct: N-terminally FLAG-tagged PARP2 (amino acids 1-583)
# Method: Data analysis was performed identical as for PARP1.
# [2] = target: T2, full length N-terminally FLAG-tagged PARP1 (Homo sapiens, UniProt P09874); test: PARP1 probe displacement HTRF assay; details: for Selectivity: PARP1 over PARP2, ratio Kd (PARP2)/Kd (PARP1); for Kd: binned Kd
# T2 sequence (P09874 whole entry): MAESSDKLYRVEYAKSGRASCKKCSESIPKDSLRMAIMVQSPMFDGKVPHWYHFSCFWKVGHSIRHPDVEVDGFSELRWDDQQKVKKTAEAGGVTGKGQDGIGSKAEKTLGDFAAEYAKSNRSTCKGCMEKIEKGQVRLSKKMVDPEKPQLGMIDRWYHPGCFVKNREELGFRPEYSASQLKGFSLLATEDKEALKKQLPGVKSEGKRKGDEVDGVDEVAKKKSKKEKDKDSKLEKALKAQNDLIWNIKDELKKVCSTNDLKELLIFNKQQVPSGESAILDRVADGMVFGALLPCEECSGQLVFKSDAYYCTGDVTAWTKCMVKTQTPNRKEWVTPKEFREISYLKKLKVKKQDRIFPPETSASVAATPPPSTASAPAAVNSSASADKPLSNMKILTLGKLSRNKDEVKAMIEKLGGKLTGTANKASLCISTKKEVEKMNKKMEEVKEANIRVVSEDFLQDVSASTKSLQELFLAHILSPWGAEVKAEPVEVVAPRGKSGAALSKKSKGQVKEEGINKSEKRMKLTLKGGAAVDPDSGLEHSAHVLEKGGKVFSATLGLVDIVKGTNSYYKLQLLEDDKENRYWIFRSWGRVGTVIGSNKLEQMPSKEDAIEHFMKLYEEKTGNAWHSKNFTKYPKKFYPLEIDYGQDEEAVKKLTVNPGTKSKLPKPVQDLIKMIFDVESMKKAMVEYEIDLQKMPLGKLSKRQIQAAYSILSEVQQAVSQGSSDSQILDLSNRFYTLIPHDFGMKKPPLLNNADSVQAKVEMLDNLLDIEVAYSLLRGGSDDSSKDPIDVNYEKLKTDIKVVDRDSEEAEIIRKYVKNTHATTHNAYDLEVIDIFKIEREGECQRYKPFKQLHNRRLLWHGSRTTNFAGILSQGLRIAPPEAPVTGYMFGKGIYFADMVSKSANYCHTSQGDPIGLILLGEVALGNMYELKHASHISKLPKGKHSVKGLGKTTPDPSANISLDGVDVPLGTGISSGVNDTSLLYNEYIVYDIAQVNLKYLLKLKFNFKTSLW
# [3] = target: T2, full length N-terminally FLAG-tagged PARP1; test: PARP1 biochemical DELFIA assay (auto-PARylation); parameters: recombinant full length human N-terminally FLAG-tagged PARP1
# [4] = read-out: PARP1 HTRF, probe displacement HTRF
# [5] = binned IC50, biochemical auto-PARylation assay
# [6] = PARP1 HTRF, PARP1 probe displacement HTRF
# [7] = binned IC50, PARP1 biochemical DELFIA assay
# [8] = read-out: PARP1 HTRF, PARP1 probe displacement HTRF
# [9] = PARP1 HTRF, probe displacement HTRF
# T1 sequence (Q9UGN5 whole entry, the tested form may be a part): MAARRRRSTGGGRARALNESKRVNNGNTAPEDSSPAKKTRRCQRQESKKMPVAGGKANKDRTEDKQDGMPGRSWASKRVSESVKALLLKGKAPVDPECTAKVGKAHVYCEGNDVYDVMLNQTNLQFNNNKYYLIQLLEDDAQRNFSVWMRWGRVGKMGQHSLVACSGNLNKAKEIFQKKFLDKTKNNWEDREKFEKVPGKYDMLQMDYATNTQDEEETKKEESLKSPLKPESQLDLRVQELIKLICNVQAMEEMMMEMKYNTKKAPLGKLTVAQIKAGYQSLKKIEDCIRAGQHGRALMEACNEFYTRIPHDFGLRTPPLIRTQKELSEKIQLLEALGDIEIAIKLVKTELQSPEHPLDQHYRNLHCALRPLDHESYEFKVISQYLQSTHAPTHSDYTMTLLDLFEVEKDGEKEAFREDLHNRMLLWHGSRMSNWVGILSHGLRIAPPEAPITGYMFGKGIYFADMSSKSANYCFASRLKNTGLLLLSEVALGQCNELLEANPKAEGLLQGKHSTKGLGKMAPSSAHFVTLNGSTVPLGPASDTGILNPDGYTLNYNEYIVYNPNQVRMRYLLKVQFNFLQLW
structure (smiles),measurement,setting,value
CNC(=O)c1cnc(N2CCC(N3CCC(c4cc5ccccc5c(=O)[nH]4)C3)CC2)s1 (racemic) [Compound 320rac],Kd,[1]; probe displacement HTRF,1000 to 10000 nM
same,Selectivity,[2]; probe displacement HTRF,− (− indicates a value of less than 10)
same,Kd,[2]; [4],100 to 1000 nM
same,IC50,[3]; [5],100 to 1000 nM
"CNC(=O)c1ccc(N2CCC(N3CCC(c4nc5c(Cl)cccc5c(=O)[nH]4)C3)CC2)cn1 (single isomer, unassigned) [Compound 52b, 5-(4-(3-(8-chloro-4-oxo-3,4-dihydroquinazolin-2-yl)pyrrolidin-1-yl)piperidin-1-yl)-N-methylpicolinamide]",Kd,[1]; PARP2 probe displacement HTRF,100 to 1000 nM
same,Kd,[2]; [6],< 10 nM
same,Selectivity,[2]; probe displacement HTRF,+++ (+++ indicate a value of at least 100)
same,IC50,[3]; [7],< 10 nM
"CNC(=O)c1ccc(N2CCC(N3CCC(c4cc5c(c(=O)[nH]4)CCC(=O)N5)C3)CC2)cn1 (single isomer, unassigned) [Compound 309b, 5-(4-(3-(2,5-dioxo-1,2,3,4,5,6-hexahydro-1,6-naphthyridin-7-yl)pyrrolidin-1-yl)piperidin-1-yl)-N-methylpicolinamide]",Kd,[1]; probe displacement HTRF,> 10000 nM
same,Selectivity,[2]; probe displacement HTRF,++ (++ indicates a value of 50 to less than 100)
same,IC50,[3]; [5],10 to 100 nM
"CNC(=O)c1ccc(N2CC(N3CCCC(c4nc5ccccc5c(=O)[nH]4)CC3)C2)cn1 (single isomer, unassigned) [Compound 145a]",Kd,[1]; PARP2 probe displacement HTRF,1000 to 10000 nM
same,Selectivity,[2]; probe displacement HTRF,+++ (+++ indicate a value of at least 100)
same,Kd,[2]; [8],< 10 nM
same,IC50,[3]; [7],< 10 nM
N#Cc1ccc(N2CCC(N3CC4(c5nc6ccc(F)cc6c(=O)[nH]5)CC3C4)CC2)c(F)c1 [Compound 380],Kd,[1]; probe displacement HTRF,> 10000 nM
same,Kd,[2]; [9],< 10 nM
same,Selectivity,[2]; probe displacement HTRF,+++ (+++ indicate a value of at least 100)
same,IC50,[3]; [5],< 10 nM
"CNC(=O)c1ccc(N2CCC(N3CCC(c4cc5cccc(F)c5c(=O)[nH]4)C3)CC2)cc1F (single isomer, unassigned) [Compound 281b]",Kd,[1]; probe displacement HTRF,100 to 1000 nM
same,Selectivity,[2]; probe displacement HTRF,− (− indicates a value of less than 10)
same,Kd,[2]; [4],100 to 1000 nM
same,IC50,[3]; [5],100 to 1000 nM
CNC(=O)c1ccc(N2CCC(N3CC4(c5nc6cccc(C(F)(F)F)c6c(=O)[nH]5)CC3C4)CC2)cn1 [Compound 394],Kd,[1]; probe displacement HTRF,10 to 100 nM
same,Kd,[2]; [9],< 10 nM
same,Selectivity,[2]; probe displacement HTRF,+ (+ indicates a value of 10 to less than 50)
same,IC50,[3]; [5],< 10 nM
CNC(=O)c1ccc(N2CCC(N3CCC(c4nc5ccccc5c(=O)[nH]4)C3)CC2)cn1 (racemic) [Compound 10rac],Kd,[1]; PARP2 probe displacement HTRF,100 to 1000 nM
same,Kd,[2]; [6],< 10 nM
same,Selectivity,[2]; probe displacement HTRF,+++ (+++ indicate a value of at least 100)
same,IC50,[3]; [7],< 10 nM
"CNC(=O)c1ccc(N2CCC(N3CCC(c4cc5c(F)ccc(F)c5c(=O)[nH]4)C3)CC2)cn1 (single isomer, unassigned) [Compound 180a]",Kd,[1]; PARP2 probe displacement HTRF,1000 to 10000 nM
same,Selectivity,[2]; probe displacement HTRF,+++ (+++ indicate a value of at least 100)
same,Kd,[2]; [8],< 10 nM
same,IC50,[3]; [7],< 10 nM
CNC(=O)c1ccc(N2CCC(N3CCCC(c4ccc(C(C)C)c(=O)[nH]4)C3)CC2)cn1 (racemic) [Compound 132rac],Kd,[1]; PARP2 probe displacement HTRF,> 10000 nM
same,Selectivity,[2]; probe displacement HTRF,+++ (+++ indicate a value of at least 100)
same,Kd,[2]; [8],10 to 100 nM
same,IC50,[3]; [7],10 to 100 nM
"CNC(=O)c1ccc(N2CCC(N3CCC(c4cc5cccc(Cl)c5c(=O)[nH]4)C3)CC2)cn1 (single isomer, unassigned) [Compound 128b]",Kd,[1]; PARP2 probe displacement HTRF,10 to 100 nM
same,Selectivity,[2]; probe displacement HTRF,++ (++ indicates a value of 50 to less than 100)
same,Kd,[2]; [8],< 10 nM
same,IC50,[3]; [7],< 10 nM
"CNC(=O)c1ccc(N2CCC(N3CCCC(c4nc5sc(C)c(C)c5c(=O)[nH]4)C3)CC2)cn1 (single isomer, unassigned) [Compound 199a]",Kd,[1]; PARP2 probe displacement HTRF,100 to 1000 nM
same,Selectivity,[2]; probe displacement HTRF,+++ (+++ indicate a value of at least 100)
same,Kd,[2]; [8],< 10 nM
same,IC50,[3]; [7],< 10 nM
"CNC(=O)c1ccc(N2CCC(N3CCCC(c4nc5cnccc5c(=O)[nH]4)C3)CC2)cn1 (single isomer, unassigned) [Compound 106a]",Kd,[1]; PARP2 probe displacement HTRF,> 10000 nM
same,Selectivity,[2]; probe displacement HTRF,+ (+ indicates a value of 10 to less than 50)
same,Kd,[2]; [8],100 to 1000 nM
same,IC50,[3]; [7],100 to 1000 nM
"CNC(=O)c1ccc(N2CCC(N3CCC(c4nc5c(c(=O)[nH]4)CCCN5)C3)CC2)cn1 (single isomer, unassigned) [Compound 214a]",Kd,[1]; PARP2 probe displacement HTRF,100 to 1000 nM
same,Selectivity,[2]; probe displacement HTRF,++ (++ indicates a value of 50 to less than 100)
same,Kd,[2]; [8],10 to 100 nM
same,IC50,[3]; [7],10 to 100 nM
CNC(=O)c1cc(Cl)c(N2CCC(N3CCC(c4cc5cccc(F)c5c(=O)[nH]4)C3)CC2)cn1 (racemic) [Compound 248rac],Kd,[1]; probe displacement HTRF,100 to 1000 nM
same,Selectivity,[2]; probe displacement HTRF,+++ (+++ indicate a value of at least 100)
same,Kd,[2]; [4],< 10 nM
same,IC50,[3]; [5],< 10 nM
"CNC(=O)c1ccc(N2CCC(N3CCC(c4nc5c(F)cc(F)cc5c(=O)[nH]4)C3)CC2)cn1 (single isomer, unassigned) [Compound 181b]",Kd,[1]; PARP2 probe displacement HTRF,100 to 1000 nM
same,Selectivity,[2]; probe displacement HTRF,+++ (+++ indicate a value of at least 100)
same,Kd,[2]; [8],< 10 nM
same,IC50,[3]; [7],< 10 nM
"CNC(=O)c1ccc(N2CC(N3CCCC(c4nc5ccccc5c(=O)[nH]4)C3)C2)cn1 (single isomer, unassigned) [Compound 23b]",Kd,[1]; PARP2 probe displacement HTRF,> 10000 nM
same,Selectivity,[2]; probe displacement HTRF,− (− indicates a value of less than 10)
same,Kd,[2]; [8],1000 to 10000 nM
same,IC50,[3]; [7],1000 to 10000 nM
CNC(=O)c1ncc(N2CCC(N3CCC(c4cc5cccc(F)c5c(=O)[nH]4)C3)CC2)c(C)n1 (racemic) [Compound 241rac],Kd,[1]; probe displacement HTRF,100 to 1000 nM
same,Selectivity,[2]; probe displacement HTRF,+++ (+++ indicate a value of at least 100)
same,Kd,[2]; [4],< 10 nM
same,IC50,[3]; [5],< 10 nM
CNC(=O)c1ncc(N2CCC(N3CCC(c4cc5cccc(F)c5c(=O)[nH]4)C3)CC2)cn1 (racemic) [Compound 215rac],Kd,[1]; PARP2 probe displacement HTRF,100 to 1000 nM
same,Selectivity,[2]; probe displacement HTRF,− (− indicates a value of less than 10)
same,Kd,[2]; [8],10 to 100 nM
same,IC50,[3]; [7],10 to 100 nM
"O=c1[nH]c(C2CCN(C3CCN(c4ccc(OC(F)F)nc4)CC3)C2)cc2ccc(F)cc12 (single isomer, unassigned) [Compound 374a]",Kd,[1]; probe displacement HTRF,100 to 1000 nM
same,Selectivity,[2]; probe displacement HTRF,+ (+ indicates a value of 10 to less than 50)
same,Kd,[2]; [4],10 to 100 nM
same,IC50,[3]; [5],10 to 100 nM
"N#Cc1ccc(N2CCC(N3CCCC(c4nc5ccccc5c(=O)[nH]4)C3)CC2)cn1 (single isomer, unassigned) [Compound 70b]",Kd,[1]; PARP2 probe displacement HTRF,100 to 1000 nM
same,Selectivity,[2]; probe displacement HTRF,− (− indicates a value of less than 10)
same,Kd,[2]; [8],100 to 1000 nM
same,IC50,[3]; [7],10 to 100 nM
"N#Cc1ccc(N2CCC(N3CCC(c4cc5cccc(F)c5c(=O)[nH]4)C3)CC2)nc1 (single isomer, unassigned) [Compound 340b]",Kd,[1]; probe displacement HTRF,100 to 1000 nM
same,Selectivity,[2]; probe displacement HTRF,+ (+ indicates a value of 10 to less than 50)
same,Kd,[2]; [4],10 to 100 nM
same,IC50,[3]; [5],10 to 100 nM
"CNC(=O)c1ccc(N2CCC(N3CCCC(c4nc5sc(C)c(C)c5c(=O)[nH]4)C3)CC2)cn1 (single isomer, unassigned) [Compound 199b]",Kd,[1]; PARP2 probe displacement HTRF,> 10000 nM
same,Selectivity,[2]; probe displacement HTRF,+ (+ indicates a value of 10 to less than 50)
same,Kd,[2]; [8],100 to 1000 nM
same,IC50,[3]; [7],100 to 1000 nM
COCCNC(=O)c1ccc(N2CCC(N3CCC(c4nc5ccccc5c(=O)[nH]4)C3)CC2)cn1 (racemic) [Compound 124rac],Kd,[1]; PARP2 probe displacement HTRF,100 to 1000 nM
same,Selectivity,[2]; probe displacement HTRF,+++ (+++ indicate a value of at least 100)
same,Kd,[2]; [8],< 10 nM
same,IC50,[3]; [7],< 10 nM
CNC(=O)c1ccc(N2CCC(N3CC4(c5nc6ncc(F)cc6c(=O)[nH]5)CC3C4)CC2)c(F)n1 [Compound 369],Kd,[1]; probe displacement HTRF,1000 to 10000 nM
same,Kd,[2]; [9],< 10 nM
same,Selectivity,[2]; probe displacement HTRF,+++ (+++ indicate a value of at least 100)
same,IC50,[3]; [5],< 10 nM
"CNC(=O)c1ccc(N2CCC(N3CCCC(c4nc5c(c(C(F)(F)F)nn5C)c(=O)[nH]4)C3)CC2)cn1 (single isomer, unassigned) [Compound 190a]",Kd,[1]; PARP2 probe displacement HTRF,1000 to 10000 nM
same,Selectivity,[2]; probe displacement HTRF,+ (+ indicates a value of 10 to less than 50)
same,Kd,[2]; [8],100 to 1000 nM
same,IC50,[3]; [7],100 to 1000 nM
CNC(=O)c1ccc(N2CCC(N3CCC(c4cc5c(c(=O)[nH]4)CCC(=O)N5C)C3)CC2)cn1 (racemic) [Compound 325rac],Kd,[1]; probe displacement HTRF,1000 to 10000 nM
same,Selectivity,[2]; probe displacement HTRF,+++ (+++ indicate a value of at least 100)
same,Kd,[2]; [4],< 10 nM
same,IC50,[3]; [5],< 10 nM
